Experimental data from patent US20150306107A1, “SAA Derivative Compound Restores eNOS And Inhibits Oxidative Stress-Induced A Diseases In Hypoxia” (JANSFAT BIOTECHNOLOGY CO., LTD., priority 2014, published 2015).

What was measured:
eNOS [1] = assay: Western blotting of eNOS expression in isolated rat pulmonary artery ring, short-term (acute) hypoxia or normoxia; assay type: cell-based; details: acute hypoxia; Normoxia 100, Hypoxia 65.3 ± 7.8; listed as 1007
Description: (§1) In our in vitro short-term experiment, isolated rat pulmonary artery was grown under normoxia (20% O2) or hypoxia (1% O2) at 37° C. for 24 hrs as was previously done (Wu BN, et al. Int J Immunopathol Pharmacol 24:925, 2011). The heart weight and body weight ratio (HW/BW) of the rats treated with one of SPAAX-1, SPAAX-1 RX complex, Sildenafil or Sildenafil RX complex each measured on the 21st hypoxic day. All animal care and the experimental protocols of this study were approved by the Animal Care and Use Committee of the Kaohsiung Medical University. Male Wistar rats (200-250 g), provided by the National Laboratory Animal Breeding and Research Center (Taipei, Taiwan), were housed under constant temperature and controlled illumination. Food and water were available ad libitum.
(§2) Whole right lung tissues of hypoxia-treated and untreated rats were isolated and cut into small strips and placed into an extraction buffer (Tris 10 mM, pH 7.0, NaCl 140 mM, PMSF 2 mM, DTT 5 mM, NP-40 0.5%, pepstatin A 0.05 mM and leupeptin 0.2 mM) for protein extraction, and then centrifuged at 12,500 g for 30 min. To measure the expression levels of the proteins, the total proteins were extracted and Western blotting analysis was performed as described previously (Bivalacqua T J, et al., 2013, TJ PLoSONE 8: e68028. doi:10.1371/journal. pone.0068028). Briefly, the protein extract was boiled to a ratio of 4:1 with a sample buffer (Tris 100 mM, pH 6.8, glycerol 20%, SDS 4% and bromophenol blue 0.2%). Electrophoresis was performed using 10% SDS-polyacrylamide gel (2 hr, 100 V, 40 mA, […] protein per lane). Separated proteins were transferred to PVDF membranes treated with 5% fat-free milk powder to block the nonspecific IgGs (90 min, 100 V) and incubated for one hour with a specific protein antibody. The blot was then incubated with anti-mouse or anti-goat IgG linked to alkaline phosphatase (1:1000) for 1 hr. Immunoreactive bands were visualized using horseradish peroxidase-conjugated secondary antibodies and subsequent electrochemiluminescence (ECL) detection (GE Healthcare Bio-Sciences Corp., Piscataway, N.J., U.S.A.). Mouse or rabbit monoclonal antibody of eNOS (Upstate, N.Y., U.S.A.), sGCα (Sigma-Adrich, CA, U.S.A., sGCβ (Santa Cruz, Calif., U.S.A.), PDE-5A (BD Tansduction, San Jose, Calif., U.S.A.), PKG (Calbiochem, San Diego, Calif., U.S.A.) ROCKII (Upstate, N.Y., U.S.A.), RhoA (Santa Cruze, Calif., U.S.A.) and the loading control protein β-actin (Sigma-Adrich, MO, U.S.A.) were used in our Western blot analysis.
(§3) The Western blotting analysis measurements were performed as per lung tissue.

VEGF [2] = assay: Western blotting of VEGF expression in isolated rat pulmonary artery ring, short-term (acute) hypoxia; assay type: cell-based; details: Normoxia 100, Hypoxia 175 ± 14, listed as 1007
Description: as §1, §2, §3

ROCK II [3] = assay: Western blotting of ROCK II expression in isolated rat pulmonary artery ring, short-term (acute) hypoxia or normoxia; assay type: cell-based; details: acute hypoxia; Normoxia 100, Hypoxia 560 ± 21; listed as 1007
Description: as §1, §2, §3

eNOS [4] = assay: Western blotting of eNOS expression in rat carvenosus strip, acute hypoxia; assay type: cell-based; set-up: unit not given here; details: Normoxia 100, Hypoxia 62.4 ± 5.5, listed as 1007
VEGF [5] = assay: Western blotting of VEGF expression in rat carvenosus strip, acute hypoxia; assay type: cell-based; set-up: unit not given here; details: Normoxia 100, Hypoxia 170 ± 15, listed as 1007
ROCK II [6] = assay: Cigarette smoking-induced Rho/ROCK activation of rat pulmonary artery ring; assay type: in vivo; details: Intraperitoneal (100 mg/kg) 1 h prior to smoke exposure, Non-Smoking control 100, Smoking 530 ± 34
Description: Intraperitoneal SAA complex (100 mg/kg in 200 μl of the solution) or 200 μl of saline (control) were given to animals through intraperitoneal injection 1 h prior to smoke exposure.
as §2

ROCK II [7] = assay: Streptozotocin (STZ) induced RhoA/ROCKII activation of rat carvenosa tissue; assay type: in vivo; details: STZ model; 2.5 mg/kg; Control 100, STZ 142 ± 28
Description: (§4) Electrophoresis was performed using 10% SDS-polyacrylamide gel (2 hr, 100 V, 40 mA, […] protein per lane). Separated proteins were transferred to PVDF membranes treated with 5% fat-free milk powder to block the nonspecific IgGs (90 min, 100 V) and incubated for one hour with a specific protein antibody. The blot was then incubated with anti-mouse or anti-goat IgG linked to alkaline phosphatase (1:1000) for 1 hr. Immunoreactive bands were visualized using horseradish peroxidase-conjugated secondary antibodies and subsequent electrochemiluminescence (ECL) detection (GE Healthcare Bio-Sciences Corp., Piscataway, N.J., U.S.A.). Mouse or rabbit monoclonal antibody of eNOS (Upstate, N.Y., U.S.A.), sGCα (Sigma-Adrich, CA, U.S.A., sGCβ (Santa Cruz, Calif., U.S.A.), PDE-5A (BD Tansduction, San Jose, Calif., U.S.A.), PKG (Calbiochem, San Diego, Calif., U.S.A.) ROCKII (Upstate, N.Y., U.S.A.), RhoA (Santa Cruze, Calif., U.S.A.) and the loading control protein β-actin (Sigma-Adrich, MO, U.S.A.) were used in our Western blot analysis.

eNOS [8] = assay: Streptozotocin (STZ) induced eNOS down-regulation of rat carvenosa tissue; assay type: in vivo; details: STZ model; 2.5 mg/kg; Control 100, STZ 60 ± 7.3
Description: as §4

ROCK II [9] = assay: Cigarette smoking-induced Rho/ROCK activation of rat pulmonary artery ring; assay type: in vivo; details: Nebulization (2.5 mM), Non-Smoking control 100, Smoking 540 ± 28

**Q.** For `CCCc1nn(C)c2c(=O)[nH]c(-c3cc(S(=O)(=O)N4CCN(C)CC4)ccc3OCC)nc12.O=C1OC(C(O)CO)C(O)=C1O` [Reagent 1007, Sildenafil L-ascorbate complex], which “eNOS expression, Pulmonary Artery Ring” value (eNOS [1]) is on record?
**A.** Its value is 160 ± 5.8.

**Q.** What about the “VEGF expression, Pulmonary Artery Ring” value (VEGF [2]) of the same molecule?
**A.** The value was 92 ± 6.4.

**Q.** And the “ROCK II expression, Pulmonary Artery Ring” value (ROCK II [3])?
**A.** Its value is 190 ± 7.7.

**Q.** And the “eNOS expression, Carvenosus” value (eNOS [4])?
**A.** The value was 142 ± 6.9.

**Q.** What about the “VEGF expression, Carvenosus” value (VEGF [5]) of the same molecule?
**A.** The value was 94 ± 6.8.

**Q.** What about the “ROCK II of pulmonary artery ring” value (ROCK II [6]) of the same molecule?
**A.** Its value is 84 ± 8.2.

**Q.** What about the “ROCK II, Carvanosus tissue” value (ROCK II [7]) of the same molecule?
**A.** The value was 38 ± 5.1%.

**Q.** And the “eNOS, Carvanosus tissue” value (eNOS [8])?
**A.** Its value is 84 ± 8.2%.

**Q.** What about the “ROCK II of pulmonary artery ring” value (ROCK II [9]) of the same molecule?
**A.** The value was 66 ± 5.1.
